# Laboratory results published in patent publication US20190119282A1, “IMIDAZOPYRIDAZINES USEFUL AS INHIBITORS OF THE PAR-2 SIGNALING PATHWAY” (Vertex Pharmaceuticals Incorporated, priority 2013, published 2019).
# Experiments:
# [1] = target: T1, PAR2 (HT-29 cells, SLIGKV activation) (Homo sapiens, UniProt P55085); assay: Ca FLIPR TETRA assay, ANTAGONIST mode, stimulation with 8 μM SLIGKV; format: cell-based; conditions: HT-29 cells, antagonist mode, stimulation with 8 μM SLIGKV
# T1 construct: host or cells: HT-29 cells
# T1 sequence (P55085 26-397): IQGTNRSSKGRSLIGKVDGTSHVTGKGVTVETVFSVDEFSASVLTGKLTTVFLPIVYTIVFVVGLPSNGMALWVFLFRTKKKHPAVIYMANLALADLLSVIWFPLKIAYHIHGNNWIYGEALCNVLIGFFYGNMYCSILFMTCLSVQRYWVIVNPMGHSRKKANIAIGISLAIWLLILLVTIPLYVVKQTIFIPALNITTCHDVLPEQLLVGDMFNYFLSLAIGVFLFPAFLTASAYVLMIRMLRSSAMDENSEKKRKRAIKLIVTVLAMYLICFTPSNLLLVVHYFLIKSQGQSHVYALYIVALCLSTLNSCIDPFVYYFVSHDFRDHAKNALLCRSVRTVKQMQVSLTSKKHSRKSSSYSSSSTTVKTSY
# Method in brief: (§1)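 Inhibition of activator-evoked Ca2+ flux was recorded on FLIPR Tetra in HT-29 cells after 30 min compound exposure at r.t. A prior read checked whether compounds alone triggered Ca2+ release.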
# [2] = target: T2, PAR2 (HT-29 cells, trypsin activation) (Homo sapiens, UniProt P55085); assay: Ca FLIPR TETRA assay, ANTAGONIST mode, stimulation with 3.1 U/mL trypsin; format: cell-based; conditions: HT-29 cells, antagonist mode, stimulation with 3.1 U/mL trypsin
# T2 construct: host or cells: HT-29 cells
# T2 sequence (P55085 26-397): T1 sequence (P55085 26-397)
# Method in brief: as §1
# [3] = test system: Thrombin-stimulated Ca2+ response in HT-29 cells; assay: Ca FLIPR TETRA assay, ANTAGONIST mode, stimulation with 1 U/mL Thrombin; format: cell-based, human; conditions: Homo sapiens; HT-29 cells, antagonist mode, stimulation with 1 U/mL Thrombin
# Method in brief: as §1
# [4] = test system: UTP-stimulated Ca2+ response in HT-29 cells; assay: Ca FLIPR TETRA assay, ANTAGONIST mode, stimulation with 0.6 μM UTP; format: cell-based, human; conditions: Homo sapiens; HT-29 cells, antagonist mode, stimulation with 0.6 μM UTP
# Method in brief: as §1
Structure (SMILES),IC50 [1] [nM],IC50 [2] [nM],IC50 [3] [nM],IC50 [4] [nM]
CC(C)(C)c1cc(-c2ccc(Cl)cc2)nn2cc(C(=O)N3CCN(C(=O)[C@H]4CC[C@@H](C(=O)O)CC4)CC3(C)C)nc12 [Compound I-490],0.1,0.2,> 1000,> 1000
CC(C)(C)c1cc(-c2ccc(Cl)cc2)nn2cc(C(=O)N3CCN(C(=O)[C@H]4CC[C@H](C(=O)O)CC4)CC3(C)C)nc12 [Compound I-491],2.4,3.2,> 1000,> 1000
CC(C)(C)c1cc(-c2ccc(F)cc2)nn2cc(C(=O)N3CCN(C(=O)C4CC(C(=O)O)C4)CC3(C)C)nc12 (stereo not drawn) [Compound I-492],4,5.6,820,690
"CC(C)(C)c1cc(-c2ccc(F)cc2)nn2cc(C(=O)N3CCN(C(=O)[C@H]4CC[C@@H](C(=O)O)CC4)CC3(C)C)nc12 [Compound I-493, (1S,4S)-4-(4-(8-(tert-butyl)-6-(4-fluorophenyl)imidazo[1,2-b]pyridazine-2-carbonyl)-3,3-dimethylpiperazine-1-carbonyl)cyclohexane-1-carboxylic acid]",0.5,0.5,760,440
"CC(C)(C)c1cc(-c2ccc(F)cc2)nn2cc(C(=O)N3CCN(C(=O)[C@H]4CC[C@H](C(=O)O)CC4)CC3(C)C)nc12 [Compound I-494, (1R,4R)-4-(4-(8-(tert-butyl)-6-(4-fluorophenyl)imidazo[1,2-b]pyridazine-2-carbonyl)-3,3-dimethylpiperazine-1-carbonyl)cyclohexane-1-carboxylic acid]",12.4,13.9,> 1000,> 1000
CC(C)c1cc(-c2ccc(F)c(Cl)c2)nn2cc(C(=O)N3CCN(C(=O)[C@H]4CC[C@@H](C(=O)O)CC4)CC3(C)C)nc12 [Compound I-495],4.1,5,21500,11100
CC(C)c1cc(-c2ccc(F)c(Cl)c2)nn2cc(C(=O)N3CCN(C(=O)[C@H]4CC[C@H](C(=O)O)CC4)CC3(C)C)nc12 [Compound I-496],55.3,101,> 1000,> 1000
CC(C)c1cc(-c2ccc(F)c(Cl)c2)nn2cc(C(=O)N3CCNCC3(C)C)nc12 [Compound I-497],405,270,> 1000,> 1000
CC(C)c1cc(-c2ccc(F)c(Cl)c2)nn2cc(C(=O)N3CCN(C(=O)[C@H]4C[C@@H](O)C4)CC3(C)C)nc12 [Compound I-498],5.6,7.4,> 1000,> 1000
COC1CC(C(=O)N2CCN(C(=O)c3cn4nc(-c5ccc(F)c(Cl)c5)cc(C(C)C)c4n3)C(C)(C)C2)C1 (stereo not drawn) [Compound I-499],8.3,9.6,> 1000,> 1000
CC(C)c1cc(-c2ccc(F)c(Cl)c2)nn2cc(C(=O)N3CCN(C(=O)[C@H]4C[C@](O)(C(F)(F)F)C4)CC3(C)C)nc12 [Compound I-500],0.3,0.4,> 1000,> 1000
CC(C)c1cc(-c2ccc(F)c(Cl)c2)nn2cc(C(=O)N3CCN(C(=O)[C@H]4C[C@H](C(=O)O)C4)CC3(C)C)nc12 [Compound I-501],51,59.5,> 1000,> 1000
CC(C)c1cc(-c2ccc(F)c(Cl)c2)nn2cc(C(=O)N3CCN(C(=O)[C@H]4C[C@@H](C(=O)O)C4)CC3(C)C)nc12 [Compound I-502],21,20,> 1000,> 1000
COC(=O)CN1CCN(C(=O)c2cn3nc(-c4ccc(F)cc4)cc(C(C)(C)C)c3n2)C(C)(C)C1=O [Compound I-503],3.9,4.6,> 1000,> 1000
Cc1nc(C(=O)N2CCN(C(=O)c3cn4nc(-c5ccc(F)c(Br)c5)cc(C(C)(C)C)c4n3)C(C)(C)C2)n[nH]1 [Compound I-504],1.2,1.5,> 1000,460
CC(C)c1cc(-c2ccc(F)c(Cl)c2)nn2cc(C(=O)N3CCN(C(=O)[C@H]4C[C@H](O)C4)CC3(C)C)nc12 [Compound I-505],12,23,> 1000,> 1000
CC(C)(C)c1cc(C2CCC(F)(F)CC2)nn2cc(C(=O)N3CCN(C(=O)[C@H]4CC[C@H](C(=O)O)CC4)CC3(C)C)nc12 [Compound I-506],107,163,> 1000,> 1000
Cc1cc(-c2cc(C(C)C)c3nc(C(=O)N4CCNC(=O)C4(C)C)cn3n2)ccc1Cl [Compound I-507],3.1,4.9,> 1000,> 1000

Structure (SMILES),IC50 [1] [nM],IC50 [2] [nM],IC50 [3] [nM],IC50 [4] [nM]
Cc1ccc(-c2cc(C(C)C)c3nc(C(=O)N4CCNC(=O)C4(C)C)cn3n2)cc1Cl [Compound I-508],4.7,4.1,> 1000,> 1000
COC(=O)CC1(C)C(=O)NCCN1C(=O)c1cn2nc(-c3ccc(F)cc3)cc(C(C)(C)C)c2n1 (stereo not drawn) [Compound I-509],82.5,170,> 1000,> 1000
CC(C)(C)c1cc(-c2ccc(F)cc2)nn2cc(C(=O)N3CCOC(=O)C3(C)C)nc12 [Compound I-510],6.8,8.8,> 1000,> 1000
CC(C)c1cc(-c2ccc(F)cc2)nn2cc(C(=O)N3CCOC(=O)C3(C)C)nc12 [Compound I-511],23,87,> 1000,> 1000
CC(=O)N1CCN(C(=O)c2cn3nc(-c4ccc(F)cc4)cc(C(C)C)c3n2)C(C)(C)C1 [Compound I-512],23.5,53,> 1000,> 1000
CC(=O)N1CCN(C(=O)c2cn3nc(-c4ccc(F)cc4)cc(C(C)(C)C)c3n2)C(C)(C)C1 [Compound I-513],1.8,3,> 1000,> 1000
CC1(C)C(=O)OCCN1C(=O)c1cn2nc(-c3ccc(F)cc3)cc(C(F)(F)F)c2n1 [Compound I-514],160,315,> 1000,> 1000
CC(C)(C)c1cc(C2CCC(F)(F)CC2)nn2cc(C(=O)N3CCN(C(=O)[C@H]4C[C@H](C(=O)O)C4)CC3(C)C)nc12 [Compound I-515],62.5,110,> 1000,> 1000
CC(C)(C)c1cc(C2CCC(F)(F)CC2)nn2cc(C(=O)N3CCN(C(=O)[C@H]4C[C@@H](C(=O)O)C4)CC3(C)C)nc12 [Compound I-516],39.5,92,> 1000,> 1000
CC(C)(C)c1cc(-c2ccc(Br)cc2)nn2cc(C(=O)N3CCNC(=O)C3(C)C)nc12 [Compound I-517],2.7,2.1,> 1000,> 1000
CC(C)(C)c1cc(-c2ccc(F)cc2)nn2cc(C(=O)N3CCN(CC(=O)O)C(=O)C3(C)C)nc12 [Compound I-518],57,68.5,> 1000,> 1000
Cc1n[nH]c(C(=O)N2CCN(C(=O)c3cn4nc(-c5ccc(Br)cc5)cc(C(C)(C)C)c4n3)C(C)(C)C2)n1 [Compound I-519],0.4,0.4,> 1000,> 1000
COC(=O)[C@H]1CC[C@@H](C(=O)N2CCN(C(=O)c3cn4nc(-c5ccc(Br)cc5)cc(C(C)(C)C)c4n3)C(C)(C)C2)CC1 [Compound I-520],1,1,> 1000,> 1000
CC(C)c1cc(-c2ccc(Cl)cc2)nn2cc(C(=O)N3CCNCC3(C)C)nc12 [Compound I-521],625,480,> 1000,> 1000
CC1(C)C(=O)NCCN1C(=O)c1cn2nc(-c3ccc(F)cc3)cc(-c3ccc(F)cc3)c2n1 [Compound I-523],12,9.6,> 1000,> 1000
CC1(C)CN(C(=O)[C@H]2CC[C@@H](C(=O)O)CC2)CCN1C(=O)c1cn2nc(-c3ccc(F)cc3)cc(-c3ccc(F)cc3)c2n1 [Compound I-524],1.4,1.7,> 1000,> 1000
COC(=O)C1(C)CCC(C(=O)N2CCN(C(=O)c3cn4nc(-c5ccc(F)cc5)cc(C(C)(C)C)c4n3)C(C)(C)C2)CC1 (stereo not drawn) [Compound I-526],0.6,0.8,> 1000,> 1000
COC(=O)C1(C(=O)N2CCN(C(=O)c3cn4nc(-c5ccc(F)cc5)cc(C(C)(C)C)c4n3)C(C)(C)C2)CC1 [Compound I-527],4.3,3,> 1000,> 1000
